Results from patent publication US20140010824A1 (priority 2012, published 2014).
Values after ≈ are worked out from the molar mass of the structure shown.

Legend:
Assay in all cases: microbe, parasite or virus in culture
Yptb(P^−) pGC1 (empty) = assay type: cell-based; details: Yersinia pseudotuberculosis, read-out: minimum inhibitory concentration (MIC)
[1] = test system: Yptb(P^−) ΔmrtAB pGC1 (empty); assay type: cell-based; details: for MIC: Yersinia pseudotuberculosis, read-out: minimum inhibitory concentration (MIC)
[2] = test system: Yptb(P^−) ΔmrtAB pmrtA^+B^+; assay type: cell-based; details: Yersinia pseudotuberculosis, read-out: minimum inhibitory concentration (MIC)
Yptb(P^−) pmrtA^+B^+ = assay type: cell-based, Yersinia pseudotuberculosis; details: for MIC: Yersinia pseudotuberculosis, read-out: minimum inhibitory concentration (MIC)
[3] = test system: Yptb(P^−) ΔmrtAB pmrtA^+B^+ flag; assay type: cell-based; details: Yersinia pseudotuberculosis, read-out: minimum inhibitory concentration (MIC)

For `CN(C)c1ccc2cc3ccc(N(C)C)cc3nc2c1` [aeridine orange, N,N,N′,N′-tetramethylacridine-3,6-diamine], the MIC (Yptb(P^−) pGC1 (empty)) was 50 µg/mL (≈ 188 µM), the MIC [1] was 50 µg/mL (≈ 188 µM) and the MIC [2] was 50 µg/mL (≈ 188 µM). For the same molecule, the MIC (Yptb(P^−) pmrtA^+B^+) was 50 µg/mL (≈ 188 µM).

In the case of `CC[n+]1c(-c2ccccc2)c2cc(N)ccc2c2ccc(N)cc21` [ethidium bromide], the MIC (Yptb(P^−) pGC1 (empty)) is reported as 25 µg/mL, the MIC [1] is reported as 25 µg/mL and the MIC [2] is reported as 100 µg/mL. The MIC (Yptb(P^−) pmrtA^+B^+) was 100 µg/mL and the MIC [3] was 100 µg/mL.

With `Cn1c2cccc(=O)c-2nc2ccccc21` [pyocyanin] the MIC (Yptb(P^−) pGC1 (empty)) was 1 µg/mL (≈ 4.76 µM), the “difference in MIC resulting from the absence of MrtAB” value [1] was “No difference was detected” and the MIC [1] was 1 µg/mL (≈ 4.76 µM). For the same molecule, the MIC [2] was 0.25 µg/mL (≈ 1.19 µM), the “change of susceptibility on expression of mrtAB on multi-copy plasmid (pACYC 184 derivative)” value (Yptb(P^−) pmrtA^+B^+) was “increased susceptibility” and the MIC (Yptb(P^−) pmrtA^+B^+) was 0.25 µg/mL (≈ 1.19 µM). It also gave an MIC [3] of 0.25 µg/mL (≈ 1.19 µM).
